Experimental data published in US7265129B2, “Anti-infective biaryl compounds” (priority 2002, dated 2007).

Tests used:
S. pneumoniae ATCC 49619 = test: MIC, NCCLS broth microdilution, S. pneumoniae; format: cell-based, Streptococcus pneumoniae
Source text: (§1) It vitro biological activity data were collected for a variety of microorganisms, including Bacillus cereus (ATCC 11778), Staphylococcus aureus (ATCC 33591; ATCC 27660, a methicillin resistant strain (MRSA); ATCC 13709, a methicillin sensitive strain (MSSA)), Enterococcus faecalis (ATCC 29212), and Streptococcus pneumoniae (ATCC 49619). Additionally, antifungal activity data were collected for Candida albicans (ATCC 38247).
(§2) Compounds according to this invention were screened for their in vitro activities against selected species of bacteria and fungi. The minimal inhibition concentration (MIC) of these compounds was determined using the National Committee for Clinical Laboratory Standards (NCCLS) broth microdilution assay in microtiter plates, as set forth in: (1) the guidelines of the National Committee for Clinical Laboratory Standards (NCCLS) Document M7-A4 (NCCLS, 1997); (2) the guidelines of the National Committee for Clinical Laboratory Standards (NCCLS) Document M11-A4 (NCCLS, 1997); and (3) the guidelines and reference method of the National Committee for Clinical Laboratory Standards (NCCLS) Document M27-T (NCCLS, 1995). For antifungal assays, the method recommended in Murray, P R., 1995 Manual of Clinical Microbiology (ASM Press, Washington, D.C.), was employed.

S. aureus ATCC 27660 = test: MIC, NCCLS broth microdilution, S. aureus MRSA; format: cell-based, Staphylococcus aureus; conditions: S. aureus ATCC 27660, methicillin resistant strain (MRSA)
Source text: as §1, §2

S. aureus ATCC 33591 = test: MIC, NCCLS broth microdilution, S. aureus ATCC 33591; format: cell-based, Staphylococcus aureus
Source text: as §1, §2

E. faecalis ATCC 29212 = test: MIC, NCCLS broth microdilution, E. faecalis; format: cell-based, Enterococcus faecalis
Source text: as §1, §2

C. albicans ATCC 38247 = test: MIC, antifungal assay, C. albicans; format: cell-based, Candida albicans
Source text: as §1, §2

S. aureus ATCC 13709 = test: MIC, NCCLS broth microdilution, S. aureus MSSA; format: cell-based, Staphylococcus aureus; conditions: S. aureus ATCC 13709, methicillin sensitive strain (MSSA)
Source text: as §1, §2

B. cereus ATCC 11778 = test: MIC, NCCLS broth microdilution, B. cereus; format: cell-based, Bacillus cereus
Source text: as §1, §2

Row | SMILES | Minimum Inhibitory Concentration (MIC), organism G (S. pneumoniae ATCC 49619) | Minimum Inhibitory Concentration (MIC), organism E (S. aureus ATCC 27660) | Minimum Inhibitory Concentration (MIC), organism F (S. aureus ATCC 33591) | Minimum Inhibitory Concentration (MIC), organism C (E. faecalis ATCC 29212) | Minimum Inhibitory Concentration (MIC), organism B (C. albicans ATCC 38247) | Minimum Inhibitory Concentration (MIC), organism D (S. aureus ATCC 13709) | Minimum Inhibitory Concentration (MIC), organism A (B. cereus ATCC 11778)
1 | Cn1cc(NC(=O)c2cc(NC(=O)c3sc4ccccc4c3Cl)cn2CCCN2CCOCC2)cc1-c1nc2ccccc2[nH]1 [Compound A-26] | +++ (MIC ≦ 4 μg/mL) | +++ (MIC ≦ 4 μg/mL) | +++ (MIC ≦ 4 μg/mL) | +++ (MIC ≦ 4 μg/mL) | >32 µg/mL | +++ (MIC ≦ 4 μg/mL) | +++ (MIC ≦ 4 μg/mL)
2 | Cn1cc(NC(=O)c2sccc2Cl)cc1C(=O)Nc1cc(-c2nc3ccccc3[nH]2)n(C)c1 [Compound A-47] | +++ (MIC ≦ 4 μg/mL) | +++ (MIC ≦ 4 μg/mL) | +++ (MIC ≦ 4 μg/mL) | +++ (MIC ≦ 4 μg/mL) | + (12 ≦ MIC ≦ 32 μg/mL) | +++ (MIC ≦ 4 μg/mL) | +++ (MIC ≦ 4 μg/mL)
3 | Cn1cc(NC(=O)c2cc3ccccc3cn2)cc1C(=O)Nc1cc(-c2nc3ccc(OC(=O)CCN4CCOCC4)cc3[nH]2)n(C)c1 [Compound A-9] | +++ (MIC ≦ 4 μg/mL) | +++ (MIC ≦ 4 μg/mL) | +++ (MIC ≦ 4 μg/mL) | +++ (MIC ≦ 4 μg/mL) | >32 µg/mL | +++ (MIC ≦ 4 μg/mL) | +++ (MIC ≦ 4 μg/mL)
4 | CC1CCN(CCCn2cc(NC(=O)c3ccc(Cl)cc3F)cc2C(=O)Nc2cc(-c3nc4ccccc4[nH]3)n(C)c2)CC1 [Compound A-38] | +++ (MIC ≦ 4 μg/mL) | +++ (MIC ≦ 4 μg/mL) | +++ (MIC ≦ 4 μg/mL) | +++ (MIC ≦ 4 μg/mL) | + (12 ≦ MIC ≦ 32 μg/mL) | +++ (MIC ≦ 4 μg/mL) | +++ (MIC ≦ 4 μg/mL)
5 | CC1CCN(CCCn2cc(NC(=O)c3sccc3Cl)cc2C(=O)Nc2cc(-c3nc4ccccc4[nH]3)n(C)c2)CC1 [Compound A-52] | +++ (MIC ≦ 4 μg/mL) | +++ (MIC ≦ 4 μg/mL) | +++ (MIC ≦ 4 μg/mL) | +++ (MIC ≦ 4 μg/mL) | + (12 ≦ MIC ≦ 32 μg/mL) | +++ (MIC ≦ 4 μg/mL) | +++ (MIC ≦ 4 μg/mL)
6 | Cn1cc(NC(=O)c2cc(NC(=O)c3sccc3Cl)cn2CCC[n+]2ccccc2)cc1-c1nc2ncccc2[nH]1 [Compound A-62] | + (12 ≦ MIC ≦ 32 μg/mL) | + (12 ≦ MIC ≦ 32 μg/mL) | + (12 ≦ MIC ≦ 32 μg/mL) | >32 µg/mL | >32 µg/mL | >32 µg/mL | >32 µg/mL
7 | CN(C)CCCn1cc(NC(=O)c2sc3ccccc3c2Cl)cc1C(=O)Nc1cc(-c2nc3ncccc3[nH]2)n(C)c1 [Compound A-28] | +++ (MIC ≦ 4 μg/mL) | +++ (MIC ≦ 4 μg/mL) | +++ (MIC ≦ 4 μg/mL) | +++ (MIC ≦ 4 μg/mL) | >32 µg/mL | +++ (MIC ≦ 4 μg/mL) | +++ (MIC ≦ 4 μg/mL)
8 | CN(C)CCCn1cc(NC(=O)c2sccc2Cl)cc1C(=O)Nc1cc(-c2nc3ncncc3[nH]2)n(C)c1 [Compound A-63] | +++ (MIC ≦ 4 μg/mL) | + (12 ≦ MIC ≦ 32 μg/mL) | + (12 ≦ MIC ≦ 32 μg/mL) | + (12 ≦ MIC ≦ 32 μg/mL) | >32 µg/mL | + (12 ≦ MIC ≦ 32 μg/mL) | >32 µg/mL
9 | Cn1cc(NC(=O)c2cc(NC(=O)c3sccc3Cl)cn2CCCN2CCC(O)CC2)cc1-c1nc2ccccc2[nH]1 [Compound A-53] | +++ (MIC ≦ 4 μg/mL) | +++ (MIC ≦ 4 μg/mL) | +++ (MIC ≦ 4 μg/mL) | ++ (4 < MIC < 12 μg/mL) | + (12 ≦ MIC ≦ 32 μg/mL) | +++ (MIC ≦ 4 μg/mL) | +++ (MIC ≦ 4 μg/mL)
10 | CN(C)CCCn1cc(NC(=O)c2ccc(F)cc2F)cc1C(=O)Nc1cc(-c2nc3ncncc3[nH]2)n(C)c1 [Compound A-19] | +++ (MIC ≦ 4 μg/mL) | + (12 ≦ MIC ≦ 32 μg/mL) | + (12 ≦ MIC ≦ 32 μg/mL) | ++ (4 < MIC < 12 μg/mL) | >32 µg/mL | + (12 ≦ MIC ≦ 32 μg/mL) | + (12 ≦ MIC ≦ 32 μg/mL)
11 | Cn1cc(NC(=O)c2cc(NC(=O)c3sccc3Cl)cn2CCCN(CCO)CCO)cc1-c1nc2ccccc2[nH]1 [Compound A-55] | ++ (4 < MIC < 12 μg/mL) | ++ (4 < MIC < 12 μg/mL) | ++ (4 < MIC < 12 μg/mL) | + (12 ≦ MIC ≦ 32 μg/mL) | >32 µg/mL | + (12 ≦ MIC ≦ 32 μg/mL) | + (12 ≦ MIC ≦ 32 μg/mL)
12 | CN(C)CCCn1cc(NC(=O)c2cc3ccccc3cn2)cc1C(=O)Nc1cc(-c2nc3ncncc3[nH]2)n(C)c1 [Compound A-15] | +++ (MIC ≦ 4 μg/mL) | + (12 ≦ MIC ≦ 32 μg/mL) | + (12 ≦ MIC ≦ 32 μg/mL) | ++ (4 < MIC < 12 μg/mL) | >32 µg/mL | + (12 ≦ MIC ≦ 32 μg/mL) | + (12 ≦ MIC ≦ 32 μg/mL)
13 | Cn1cc(NC(=O)c2cc(NC(=O)c3sc4ccccc4c3Cl)cn2CCCN2CCCCC2)cc1-c1nc2ccccc2[nH]1 [Compound A-23] | +++ (MIC ≦ 4 μg/mL) | +++ (MIC ≦ 4 μg/mL) | +++ (MIC ≦ 4 μg/mL) | +++ (MIC ≦ 4 μg/mL) | + (12 ≦ MIC ≦ 32 μg/mL) | +++ (MIC ≦ 4 μg/mL) | +++ (MIC ≦ 4 μg/mL)
14 | CN(C)CCCn1cc(NC(=O)c2ccc(Cl)cc2F)cc1C(=O)Nc1cc(-c2nc3cccnc3[nH]2)n(C)c1 [Compound A-39] | +++ (MIC ≦ 4 μg/mL) | +++ (MIC ≦ 4 μg/mL) | +++ (MIC ≦ 4 μg/mL) | +++ (MIC ≦ 4 μg/mL) | + (12 ≦ MIC ≦ 32 μg/mL) | +++ (MIC ≦ 4 μg/mL) | +++ (MIC ≦ 4 μg/mL)
15 | Cn1cc(NC(=O)c2cc(NC(=O)c3ccc(Cl)cc3F)cn2CCCN2CCC(F)(F)CC2)cc1-c1nc2ccccc2[nH]1 [Compound A-35] | +++ (MIC ≦ 4 μg/mL) | +++ (MIC ≦ 4 μg/mL) | +++ (MIC ≦ 4 μg/mL) | +++ (MIC ≦ 4 μg/mL) | >32 µg/mL | +++ (MIC ≦ 4 μg/mL) | +++ (MIC ≦ 4 μg/mL)
16 | CN(C)CCCn1cc(NC(=O)c2sc3ccccc3c2Cl)cc1C(=O)Nc1cc(-c2nc3ccncc3[nH]2)n(C)c1 [Compound A-29] | +++ (MIC ≦ 4 μg/mL) | +++ (MIC ≦ 4 μg/mL) | +++ (MIC ≦ 4 μg/mL) | +++ (MIC ≦ 4 μg/mL) | ++ (4 < MIC < 12 μg/mL) | +++ (MIC ≦ 4 μg/mL) | +++ (MIC ≦ 4 μg/mL)
